# Biological target: T1, human PTH1 receptor (Homo sapiens, UniProt Q03431)
# T1 sequence (Q03431 27-593): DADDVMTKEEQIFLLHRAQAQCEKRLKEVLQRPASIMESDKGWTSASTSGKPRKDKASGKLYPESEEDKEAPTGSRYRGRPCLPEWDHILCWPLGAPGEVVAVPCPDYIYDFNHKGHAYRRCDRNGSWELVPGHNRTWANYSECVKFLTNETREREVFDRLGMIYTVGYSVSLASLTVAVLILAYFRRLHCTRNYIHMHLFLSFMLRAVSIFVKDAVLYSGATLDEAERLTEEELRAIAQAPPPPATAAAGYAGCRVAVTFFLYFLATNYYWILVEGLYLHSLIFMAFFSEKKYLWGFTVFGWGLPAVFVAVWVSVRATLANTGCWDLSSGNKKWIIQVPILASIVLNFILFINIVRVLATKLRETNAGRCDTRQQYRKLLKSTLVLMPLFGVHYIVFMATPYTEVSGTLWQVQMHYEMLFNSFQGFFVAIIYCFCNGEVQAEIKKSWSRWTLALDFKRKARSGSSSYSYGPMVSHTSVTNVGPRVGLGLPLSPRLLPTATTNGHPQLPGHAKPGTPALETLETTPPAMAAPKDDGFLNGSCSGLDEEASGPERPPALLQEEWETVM
# Test: In vitro cAMP signal activity in HKRK-B7 cells (LLC-PK1 cells overexpressing the human PTH1 receptor)
# Assay type: cell-based
# Settings: HKRK-B7 cells; compound at 1×10^−3 M; cAMP produced as percentage of that produced by hPTH(1-34) at 100 nM
row,cAMP production activity (%),SMILES
1,95%,"Cc1cc(N(C)C(N)=O)cc(C)c1/C=C/S(=O)(=O)N1CCC2(CC1)N=C(c1ccc(CCCC(F)(F)F)cc1)NC2=O [Compound 1088, 1-[3,5-Dimethyl-4-((E)-2-{4-oxo-2-[4-(4,4,4-trifluoro-butyl)-phenyl]-1,3,8-triaza-spiro[4.5]dec-1-ene-8-sulfonyl}-vinyl)-phenyl]-1-methyl-urea]"
2,99%,"Cc1cc(N(C)C(N)=O)cc(C)c1/C=C/[S@TB4](=O)(=O)N1CCC2(CC1)N=C(c1cccc(CCCC(F)(F)F)c1)NC2=O [Compound 1089, 1-[3,5-dimethyl-4-((E)-2-{4-oxo-2-[3-(4,4,4-trifluoro-butyl)-phenyl]-1,3,8-triaza-spiro[4.5]dec-1-ene-8-sulfonyl}-vinyl)-phenyl]-1-methyl-urea]"
3,118%,"Cc1cc(N(C)C(N)=O)cc(C)c1CC(C)S(=O)(=O)N1CCC2(CC1)N=C(c1cccc(OC(F)(F)F)c1)NC2=O (stereo not drawn) [Compound 1090, 1-(3,5-Dimethyl-4-{2-[4-oxo-2-(3-trifluoromethoxy-phenyl)-1,3,8-triaza-spiro[4.5]dec-1-ene-8-sulfonyl]-propyl}-phenyl)-1-methyl-urea]"
4,118%,"Cc1cc(C(=O)N2CCC(O)CC2)cc(C)c1/C=C/S(=O)(=O)N1CCC2(CC1)N=C(c1ccc(F)c(OCCCC(F)(F)C(F)(F)F)c1)NC2=O [Compound 1091, 2-[4-Fluoro-3-(4,4,5,5,5-pentafluoro-pentyloxy)-phenyl]-8-{(E)-2-[4-(4-hydroxy-piperidine-1-carbonyl)-2,6-dimethyl-phenyl]-ethenesulfonyl}-1,3,8-triaza-spiro[4.5]dec-1-en-4-one]"
5,89%,"Cc1cc(C(=O)N2CCC(C)(O)CC2)cc(C)c1/C=C/S(=O)(=O)N1CCC2(CC1)N=C(c1ccc(F)c(OCCCC(F)(F)C(F)(F)F)c1)NC2=O [Compound 1092, 2-[4-Fluoro-3-(4,4,5,5,5-pentafluoro-pentyloxy)-phenyl]-8-{(E)-2-[4-(4-hydroxy-4-methyl-piperidine-1-carbonyl)-2,6-dimethyl-phenyl]-ethenesulfonyl}-1,3,8-triaza-spiro[4.5]dec-1-en-4-one]"
6,100%,"Cc1cc(C(=O)N2CCC(C)(O)CC2)cc(C)c1/C=C/[S@TB4](=O)(=O)N1CCC2(CC1)N=C(c1ccc(Cl)c(OC(F)(F)F)c1)NC2=O [Compound 1093, 2-(4-chloro-3-trifluoromethoxy-phenyl)-8-{(E)-2-[4-(4-hydroxy-4-methyl-piperidine-1-carbonyl)-2,6-dimethyl-phenyl]-ethenesulfonyl}-1,3,8-triaza-spiro[4.5]dec-1-en-4-one]"
7,100%,"Cc1cc(C(=O)N2CCC(C)(O)CC2)cc(C)c1/C=C/[S@TB4](=O)(=O)N1CCC2(CC1)N=C(c1ccc(OC(F)(F)F)c(F)c1)NC2=O [Compound 1094, 2-(3-fluoro-4-trifluoromethoxy-phenyl)-8-{(E)-2-[4-(4-hydroxy-4-methyl-piperidine-1-carbonyl)-2,6-dimethyl-phenyl]-ethenesulfonyl}-1,3,8-triaza-spiro[4.5]dec-1-en-4-one]"
8,105%,"Cc1cc(C(=O)N2CCC(C)(O)CC2)cc(C)c1/C=C/[S@TB4](=O)(=O)N1CCC2(CC1)N=C(c1ccc(C(F)(F)F)c(C(F)(F)F)c1)NC2=O [Compound 1095, 2-(3,4-bis-trifluoromethyl-phenyl)-8-{(E)-2-[4-(4-hydroxy-4-methyl-piperidine-1-carbonyl)-2,6-dimethyl-phenyl]-ethenesulfonyl}-1,3,8-triaza-spiro[4.5]dec-1-en-4-one]"
9,93%,"Cc1cc(C(=O)N2CCC(C)(O)CC2)cc(C)c1/C=C/[S@TB4](=O)(=O)N1CCC2(CC1)N=C(c1cccc(OCCCC(F)(F)C(F)(F)F)c1)NC2=O [Compound 1096, 8-{(E)-2-[4-(4-hydroxy-4-methyl-piperidine-1-carbonyl)-2,6-dimethyl-phenyl]-ethenesulfonyl}-2-[3-(4,4,5,5,5-pentafluoro-pentyloxy)-phenyl]-1,3,8-triaza-spiro[4.5]dec-1-en-4-one]"
10,90%,"Cc1cc(C(=O)N2CCC(C)(O)CC2)cc(C)c1/C=C/[S@TB4](=O)(=O)N1CCC2(CC1)N=C(c1cccc(CC(F)(F)F)c1)NC2=O [Compound 1097, 8-{(E)-2-[4-(4-hydroxy-4-methyl-piperidine-1-carbonyl)-2,6-dimethyl-phenyl]-ethenesulfonyl}-2-[3-(2,2,2-trifluoro-ethyl)-phenyl]-1,3,8-triaza-spiro[4.5]dec-1-en-4-one]"
11,88%,"Cc1cc(C2=NC3(CCN([S@TB17](=O)(=O)/C=C/c4c(C)cc(C(=O)N5CCC(C)(O)CC5)cc4C)CC3)C(=O)N2)ccc1F [Compound 1098, 2-(4-fluoro-3-methyl-phenyl)-8-{(E)-2-[4-(4-hydroxy-4-methyl-piperidine-1-carbonyl)-2,6-dimethyl-phenyl]-ethenesulfonyl}-1,3,8-triaza-spiro[4.5]dec-1-en-4-one]"
12,91%,"Cc1cc(C(=O)N2CCC(C)(O)CC2)cc(C)c1/C=C/[S@TB4](=O)(=O)N1CCC2(CC1)N=C(c1ccc(F)c(OC(F)(F)F)c1)NC2=O [Compound 1099, 2-(4-fluoro-3-trifluoromethoxy-phenyl)-8-{(E)-2-[4-(4-hydroxy-4-methyl-piperidine-1-carbonyl)-2,6-dimethyl-phenyl]-ethenesulfonyl}-1,3,8-triaza-spiro[4.5]dec-1-en-4-one]"
13,76%,"Cc1cc(C(=O)N2CCC(C)(O)CC2)cc(C)c1/C=C/S(=O)(=O)N1CCC2(CC1)N=C(c1cccc(OC(F)(F)C(F)F)c1)NC2=O [Compound 1100, 8-{(E)-2-[4-(4-Hydroxy-4-methyl-piperidine-1-carbonyl)-2,6-dimethyl-phenyl]-ethenesulfonyl}-2-[3-(1,1,2,2-tetrafluoro-ethoxy)-phenyl]-1,3,8-triaza-spiro[4.5]dec-1-en-4-one]"
14,110%,"Cc1cc(C(=O)N2CCC(O)CC2)cc(C)c1CC(F)(F)S(=O)(=O)N1CCC2(CC1)N=C(c1cccc(OC(F)(F)F)c1)NC2=O [Compound 1101, 8-{1,1-Difluoro-2-[4-(4-hydroxy-piperidine-1-carbonyl)-2,6-dimethyl-phenyl]-ethanesulfonyl}-2-(3-trifluoromethoxy-phenyl)-1,3,8-triaza-spiro[4.5]dec-1-en-4-one]"
15,10%,"Cc1cc(C(=O)N2CC(O)C2)cc(C)c1/C=C/S(=O)(=O)N1CCC2(CC1)N=C(c1ccc(F)c(OC(F)(F)F)c1)NC2=O [Compound 1102, 2-(4-Fluoro-3-trifluoromethoxy-phenyl)-8-{(E)-2-[4-(3-hydroxy-azetidine-1-carbonyl)-2,6-dimethyl-phenyl]-ethenesulfonyl}-1,3,8-triaza-spiro[4.5]dec-1-en-4-one]"
16,5.4%,"Cc1cc(OC[C@H](O)CO)cc(C)c1/C=C/S(=O)(=O)N1CCC2(CC1)N=C(c1cccc(OCCCC(F)(F)C(F)(F)F)c1)NC2=O [Compound 1103, 8-{(E)-2-[4-((R)-2,3-Dihydroxy-propoxy)-2,6-dimethyl-phenyl]-ethenesulfonyl}-2-[3-(4,4,5,5,5-pentafluoro-pentyloxy)-phenyl]-1,3,8-triaza-spiro[4.5]dec-1-en-4-one]"
17,16%,"CC1CCC(C2=NC3(CN(S(=O)(=O)CCc4cccc5ccccc45)C3)C(=O)N2)CC1 (stereo not drawn) [Compound 1104, 6-(4-Methyl-cyclohexyl)-2-(2-naphthalen-1-yl-ethanesulfonyl)-2,5,7-triaza-spiro[3.4]oct-5-en-8-one]"
18,58%,"CNc1cc(C)c(/C=C/[S@TB3](=O)(=O)N2CCC3(CC2)N=C(CCCCCCCCCCCNC(=O)OC(C)(C)C)NC3=O)c(C)c1 [Compound 1106, (11-{8-[(E)-2-(2,6-dimethyl-4-methylamino-phenyl)-ethenesulfonyl]-4-oxo-1,3,8-triaza-spiro[4.5]dec-1-en-2-yl}-undecyl)-carbamic acid tert-butyl ester]"
19,24%,"CNc1cc(C)c(/C=C/[S@TB3](=O)(=O)N2CCC3(CC2)N=C(CCCCCCCCCO)NC3=O)c(C)c1 [Compound 1107, 8-[(E)-2-(2,6-dimethyl-4-methylamino-phenyl)-ethenesulfonyl]-2-(9-hydroxy-nonyl)-1,3,8-triaza-spiro[4.5]dec-1-en-4-one]"
20,99%,"CCC[C@@H]1CCC[C@H](C2=NC3(CCN(S(=O)(=O)/C=C/c4c(C)cc(N(C)C(N)=O)cc4C)CC3)C(=O)N2)C1 [Compound 1108, 1-(3,5-Dimethyl-4-{(E)-2-[4-oxo-2-((1S,3R)-3-propyl-cyclohexyl)-1,3,8-triaza-spiro[4.5]dec-1-ene-8-sulfonyl]-vinyl}-phenyl)-1-methyl-urea]"
21,29%,"Cc1cc(N(C)C(N)=O)cc(C)c1/C=C/[S@TB4](=O)(=O)N1CCC2(CC1)N=C(CCCCCCCCCCCCCC(=O)O)NC2=O [Compound 1109, 14-(8-{(E)-2-[2,6-dimethyl-4-(1-methyl-ureido)-phenyl]-ethenesulfonyl}-4-oxo-1,3,8-triaza-spiro[4.5]dec-1-en-2-yl)-tetradecanoic acid]"
